Reference: PubChem BioAssay (NCI)
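Five concentrations, 48 hours, 96-well plates. GI50 = concentration required for 50% inhibition of growth. TGI marks complete inhibition of growth.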

Assays:
Test in all cases: NCI anticancer screen, dose series, 48 h
SF-268 CNS = tested on: SF-268 CNS
MALME-3M melanoma = tested on: MALME-3M melanoma
NCI-H460 lung = tested on: NCI-H460 lung
HOP-92 NSCLC = tested on: HOP-92 NSCLC
SK-MEL-5 melanoma = tested on: SK-MEL-5 melanoma
CCRF-CEM leukemia = tested on: CCRF-CEM leukemia
SF-539 CNS = tested on: SF-539 CNS
TK-10 renal = tested on: TK-10 renal
OVCAR-5 ovarian = tested on: OVCAR-5 ovarian
ACHN renal = tested on: ACHN renal

Row | Structure (SMILES) | GI50 (SF-268 CNS) [µM] | TGI (SF-268 CNS) [µM] | GI50 (MALME-3M melanoma) [µM] | TGI (MALME-3M melanoma) [µM] | GI50 (NCI-H460 lung) [µM] | TGI (NCI-H460 lung) [µM] | GI50 (HOP-92 NSCLC) [µM] | TGI (HOP-92 NSCLC) [µM] | GI50 (SK-MEL-5 melanoma) [µM] | TGI (SK-MEL-5 melanoma) [µM] | GI50 (CCRF-CEM leukemia) [µM] | TGI (CCRF-CEM leukemia) [µM] | GI50 (SF-539 CNS) [µM] | TGI (SF-539 CNS) [µM] | GI50 (TK-10 renal) [µM] | TGI (TK-10 renal) [µM] | GI50 (OVCAR-5 ovarian) [µM] | TGI (OVCAR-5 ovarian) [µM] | GI50 (ACHN renal) [µM] | TGI (ACHN renal) [µM]
1 | C=C(CN1CCN(c2cc(C(F)(F)F)cc(C(F)(F)F)c2)CC1)c1ccc(C(=O)Nc2ccccc2N)cc1 | 8.12 | > 100 | 13.8 | 47.9 | 4.09 | > 100 | 1.88 | 7.45 | 2.28 | 10.8 | 1.49 | 6.51 | 18 | > 100 | 12.3 | > 100 | 54.6 | > 100 | 5.81 | > 100
2 | CC(=O)O[C@H]1CSC[C@@H](OC(C)=O)C1[N+](=O)[O-] (stereo not given in full) |  | > 100 |  | 41.6 |  | > 100 |  | 39.7 |  | > 100 |  | 44.4 |  | > 100 |  | > 100 |  | > 100 |  | > 100
3 | COC(=O)c1sc(-n2cnc3cc(OC)c(OC)cc32)cc1OCc1ccccc1C(F)(F)F | 17.1 | > 25 | > 25 | > 25 | 18.7 | > 25 | 4.31 | 18.1 | > 25 | > 25 | > 25 | > 25 | > 25 | > 25 | 11 | > 25 | > 25 | > 25 | > 25 | > 25
4 | CO[C@H]1C[C@H](O[C@H]2CC[C@@]3(C)[C@H](CC[C@@H]4[C@@H]3CC[C@]3(C)[C@@H](C5=CC(=O)OC5)CC[C@]43O)C2)O[C@H](C)[C@H]1O |  | 0.0188 |  | 0.0113 |  | 0.0103 |  | 0.0882 |  | 0.0469 |  | > 100 |  | 0.0138 |  | 0.0482 |  | 0.0896 |  | 0.0101
5 | NS(=O)(=O)c1cccc(Nc2cc(-c3ccc(F)cc3)[nH]n2)c1 | 18.6 | > 25 | > 25 | > 25 | 13.8 | > 25 | > 25 | > 25 | 24.5 | > 25 | 23 | > 25 | 15.1 | > 25 | 20.3 | > 25 | > 25 | > 25 | 13.2 | > 25
6 | CC(C)(C)n1cc(-c2ccnc(NCCCNS(=O)(=O)c3cccc4ccccc34)c2)c(-c2cccc(O)c2)n1 | 2.77 | 8.02 | 1.51 | 3.18 | 1.93 | 3.8 | 1.71 | 5.07 | 1.51 | 2.85 | 2.44 | > 100 | 1.83 | 3.52 | 2.85 | 9.73 | 1.98 | 4.06 | 2.7 | 7.25
7 | C(=C\c1ccc2ccccc2c1Nc1ccccc1)/c1ccccc1 |  | > 100 |  | > 78.8 |  | > 59.2 |  | 45.5 |  | > 100 |  | 30.5 |  | > 100 |  | > 100 |  | > 100 |  | > 63.9
8 | NC1(C(=O)O)CCC(C(=O)O)CC1 (stereo not given) |  | > 100 |  | > 100 |  | > 100 |  | > 100 |  | > 100 |  | > 100 |  | > 100 |  | > 100 |  | > 100 |  | > 100
9 | Nc1ncc(CN2CCCC2)c(-c2ccccc2O)n1 |  | > 750 |  | > 750 |  | > 750 |  | > 750 |  | > 750 | > 750 |  |  | > 750 |  | > 750 |  | > 750 |  | > 750
10 | COC1=CC(=O)[C@@]2(C)C(C)[C@H](c3ccccc3)[C@H]2C1=O (stereo not given in full) |  | > 100 |  | > 100 |  | > 100 |  | > 100 |  | > 100 |  | > 100 |  | > 100 |  | > 100 |  | > 100 |  | > 100
11 | COc1cc(C(=O)/C=C/c2c[nH]c3ccccc23)cc(OC)c1OC | 0.0735 | 26.3 | 0.0381 | 18 | < 0.0191 | 2.17 | 0.0269 | 6.46 | < 0.0173 | 0.775 | 0.0254 | 14 | 0.0184 | 0.0965 | 0.188 | 9.56 | 0.0728 | > 100 | 0.0509 | 16.7
12 | COc1cc(F)c(F)c(Nc2ccc(I)cc2F)c1NS(=O)(=O)C1(CC(O)CO)CC1 (stereo not given) | 15.6 | 55 | 1.02 | 8.02 | 13.9 | 33.2 | 1.13 | 19.6 | 8.12 | 21.9 | 19.8 | > 72.3 | 15.8 | 33.8 | 14.9 | 72.1 | 10.2 | 30.1 | 17 | > 73.9
13 | O=C(NCCN1CCOCC1)c1cc2c(Oc3ccc(NC(=O)C4(C(=O)Nc5ccc(F)cc5)CC4)cc3)ccnc2[nH]1 | 6.4 | > 100 | 1.1 | 14.4 | 4.36 | > 100 | 1.82 | 16.5 | 3.03 | 12.4 | 11 | > 100 | 1.39 | 16.5 | 7.56 | 41 | 9.94 | > 100 | 7.84 | > 100
14 | OC[C@H]1C[C@](O)(c2ccccc2Cl)[C@@H](c2ccccc2Cl)O1 | 24.2 | > 100 | 21.6 | 51.4 | 19.8 | 49.6 | 22.2 | 58.8 | 17.1 | 31.6 | 27.8 | > 100 | 22.4 | 50.7 | 20.9 | 64.7 | 23 | 70.8 | 27.4 | 91.2
